Assay results from article PMC3742539, “ε Subunit of Bacillus subtilis F1-ATPase Relieves MgADP Inhibition” (PLoS ONE, 2013).

Tests used:
[1] = molecular target: T1, α3β3γε complex of BF1 (F1-ATPase from Bacillus subtilis) (Bacillus subtilis, UniProt P37808+P37809); assay: residual initial ATPase activity ([…]-4 s) after preincubation with MgADP; assay type: biochemical; details: read-out: % inhibition at 1:1 MgADP (5 μM)
T1 construct: gene atpD; recombinant α3β3γ (His6-tag at N-terminus of β, kept) reconstituted with excess separately purified BF1 ε subunit; no δ; E. coli expression; with ATP synthase gamma chain; ATP synthase epsilon chain

[2] = molecular target: T2, α3β3γ complex of BF1 (F1-ATPase from Bacillus subtilis) (Bacillus subtilis, UniProt P37808+P37809); assay: as above; assay type: biochemical; details: read-out: % inhibition at 1:1 MgADP (5 μM)
T2 construct: gene atpD; recombinant α3β3γ subcomplex without δ and ε; His6-tag at N-terminus of β (kept); initiation codons of α and γ changed to ATG; expressed in E. coli BL21(DE3) from pET21-BF1; nucleotide-free; with ATP synthase gamma chain
T2 sequence (P37809 whole entry): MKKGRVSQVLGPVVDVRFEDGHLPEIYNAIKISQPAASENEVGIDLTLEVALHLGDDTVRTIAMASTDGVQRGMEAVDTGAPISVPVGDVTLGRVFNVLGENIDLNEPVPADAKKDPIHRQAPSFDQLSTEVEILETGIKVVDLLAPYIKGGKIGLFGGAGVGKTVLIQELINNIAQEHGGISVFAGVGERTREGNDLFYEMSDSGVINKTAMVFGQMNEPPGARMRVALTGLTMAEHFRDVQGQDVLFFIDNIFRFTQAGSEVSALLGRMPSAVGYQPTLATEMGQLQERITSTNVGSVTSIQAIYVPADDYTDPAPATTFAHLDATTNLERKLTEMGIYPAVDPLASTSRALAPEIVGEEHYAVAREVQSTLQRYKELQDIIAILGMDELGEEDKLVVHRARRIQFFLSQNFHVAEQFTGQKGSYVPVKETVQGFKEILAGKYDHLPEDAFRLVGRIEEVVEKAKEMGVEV
T2 sequence (P37808 2-502): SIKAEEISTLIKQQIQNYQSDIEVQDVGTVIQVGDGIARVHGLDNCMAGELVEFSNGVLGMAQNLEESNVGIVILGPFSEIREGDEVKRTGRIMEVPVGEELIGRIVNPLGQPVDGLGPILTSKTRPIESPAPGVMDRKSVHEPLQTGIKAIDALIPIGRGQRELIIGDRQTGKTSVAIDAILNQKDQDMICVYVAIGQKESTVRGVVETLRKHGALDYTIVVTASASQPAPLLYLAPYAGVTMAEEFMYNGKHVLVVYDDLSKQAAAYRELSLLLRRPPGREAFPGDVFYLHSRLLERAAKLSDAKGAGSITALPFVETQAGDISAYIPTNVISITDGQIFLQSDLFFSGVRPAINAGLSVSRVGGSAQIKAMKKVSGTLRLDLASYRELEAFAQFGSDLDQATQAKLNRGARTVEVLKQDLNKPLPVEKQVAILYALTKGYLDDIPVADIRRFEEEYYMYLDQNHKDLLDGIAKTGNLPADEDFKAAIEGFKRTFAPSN
T2 sequence (P37810 whole entry, further chain): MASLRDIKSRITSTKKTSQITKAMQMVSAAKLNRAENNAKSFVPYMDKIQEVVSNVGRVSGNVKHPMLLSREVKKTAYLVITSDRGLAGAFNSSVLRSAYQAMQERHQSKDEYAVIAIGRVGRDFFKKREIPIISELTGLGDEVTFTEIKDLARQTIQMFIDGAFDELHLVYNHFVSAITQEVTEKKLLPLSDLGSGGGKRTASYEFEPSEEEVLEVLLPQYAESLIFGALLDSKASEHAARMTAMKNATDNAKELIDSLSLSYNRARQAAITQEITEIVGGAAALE

T1 sequence (P37812 whole entry): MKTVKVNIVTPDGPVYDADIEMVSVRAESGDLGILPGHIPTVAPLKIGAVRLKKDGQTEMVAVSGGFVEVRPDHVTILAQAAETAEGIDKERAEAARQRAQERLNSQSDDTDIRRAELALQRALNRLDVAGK
T1 sequence (P37809 whole entry): as the sequence (P37809 whole entry) above
T1 sequence (P37808 2-502): as the sequence (P37808 2-502) above
T1 sequence (P37810 whole entry, further chain): as the sequence (P37810 whole entry, further chain) above

Nc1ncnc2c1ncn2[C@@H]1O[C@H](COP(=O)(O)OP(=O)(O)O)[C@@H](O)[C@H]1O [MgADP]
inhibition at 5 µM [1]: ~20%
inhibition at 5 µM [2]: ~50%
